In patent publication US6204293A, “Inhibitors of protein isoprenyl transferases” (University of Pittsburgh, priority 1998, dated 2001):
Structures can show the parent of a compound that is named as a salt. Where two headings read alike, the source gives them in different places. Each block holds one compound with its values, some of them ahead of it.

Biological target: T1, Rat brain protein farnesyltransferase (Rattus norvegicus, UniProt Q02293+Q04631)
T1 construct: Rat brain protein farnesyltransferase activity is measured; from tissue; host or cells: rat brain
Experiment: % inhibition of farnesylation, scintillation proximity assay with biotin-K Ras B fragment
Format: biochemical
Conditions: for % inhibition at 1 × 10^-5 M: Table 1; for inhibition at 1 µM: read-out: % inhibition at 1 × 10^-6 M; for % inhibition at 1 × 10^-8 M: Table 4
Excerpt: The ability of the compounds of the invention to inhibit protein farnesyltransferase or protein geranylgeranyltransferase can be measured according to the method of Moores, et al., J. Biol. Chem. 266: 14603 (1991) or the method of Vogt, et al., J. Biol. Chem. 270:660-664 (1995). In addition, procedures for determination of the inhibition of farnesylation of the oncogene protein Ras are described by Goldstein, et al., J. Biol. Chem., 266:15575-15578 (1991) and by Singh in U.S. Pat. No. 5,245,061.
In addition, in vitro inhibition of protein farnesyltransferase may be measured by the following procedure. Rat brain protein farnesyltransferase activity is measured using an Amersham Life Science commercial scintillation proximity assay kit and substituting a biotin-K Ras B fragment (biotin-[…]CO2 H), 0.1 mM final concentration, for the biotin-lamin substrate provided by Amersham. The enzyme is purified according to Reiss, Y., et al., Cell, 62: 81-88 (1990), utilizing steps one through three.
The % inhibition of protein farnesyltransferase was determined for representative compounds of the invention.

T1 sequence (Q02293 whole entry, one chain of several): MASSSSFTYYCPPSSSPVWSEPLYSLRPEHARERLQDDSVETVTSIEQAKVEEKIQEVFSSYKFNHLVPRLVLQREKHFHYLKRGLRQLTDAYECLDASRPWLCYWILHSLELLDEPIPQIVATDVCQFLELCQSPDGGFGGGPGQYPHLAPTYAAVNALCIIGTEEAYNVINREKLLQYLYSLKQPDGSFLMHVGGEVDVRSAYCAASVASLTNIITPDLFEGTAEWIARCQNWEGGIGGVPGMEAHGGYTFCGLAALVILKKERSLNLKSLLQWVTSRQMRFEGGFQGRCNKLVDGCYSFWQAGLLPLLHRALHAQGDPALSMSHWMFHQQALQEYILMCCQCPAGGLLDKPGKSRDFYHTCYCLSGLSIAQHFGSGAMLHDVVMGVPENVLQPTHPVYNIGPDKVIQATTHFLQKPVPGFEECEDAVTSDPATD

% inhibition at 1 × 10^-7 M (Table 3, 1 × 10^-7 M): 78%
Structure (SMILES): CSCC[C@H](NC(=O)c1ccc(/C=C/c2ccc(Oc3ccccc3Cl)cc2)cc1-c1ccccc1C)C(=O)O [Example 854]

% inhibition at 1 × 10^-6 M (Table 2, 1 × 10^-6 M): 72%
Structure (SMILES): CSCC[C@H](NC(=O)c1ccc(CN(CCO)c2ccccc2)cc1-c1ccccc1)C(=O)O [Example 505]

inhibition at 1 µM (Table 2, 1 × 10^-6 M): 93%
Structure (SMILES): CSCC[C@H](NC(=O)c1ccc(COC2CCN(Cc3ccccc3)C2)cc1-c1ccccc1C)C(=O)O (stereo partly drawn) [Example 987, N-[4-(1-benzylpyrrolidin-3-oxymethyl)-2-(2-methylphenyl)benzoyl]methionine]

inhibition at 1 µM (Table 2, 1 × 10^-6 M): 94%
Structure (SMILES): CSCC[C@H](NC(=O)c1ccc(COCc2ccco2)cc1-c1ccccc1C)C(=O)O [Example 299, [4-(2-furylmethyloxymethyl)-2-(2-methylphenyl)benzoyl]methionine]

% inhibition at 1 × 10^-5 M: 74%
Structure (SMILES): CSCC[C@H](NC(=O)c1ccc(CNc2ccc(C3CCCCC3)cc2)cc1-c1ccccc1)C(=O)O [Example 699]

% inhibition at 1 × 10^-7 M (Table 3, 1 × 10^-7 M): 92%
Structure (SMILES): CSCC[C@H](NC(=O)c1ccc(CCc2ccc(Oc3ccccc3N)cc2)cc1-c1ccccc1C)C(=O)O [Example 857]

% inhibition at 1 × 10^-6 M (Table 2, 1 × 10^-6 M): 69%
Structure (SMILES): CSCC[C@H](NC(=O)c1ccc(CNCc2ccccc2)cc1-c1ccccc1)C(=O)O.Cl [Example 936]

% inhibition at 1 × 10^-5 M: 86%
Structure (SMILES): CSCC[C@H](NC(=O)c1ccc(CNc2cc[nH]n2)cc1-c1ccccc1)C(=O)O [Example 370]

% inhibition at 1 × 10^-6 M (Table 2, 1 × 10^-6 M): 84%
Structure (SMILES): CNCC(=O)Nc1ccc(C(=O)N[C@@H](CCSC)C(=O)O)c(-c2ccccc2)c1 [Example 749]

inhibition at 0.01 µM (read-out: % inhibition at 0.01 μM (**), Table 6, ** footnote 0.01 μM (title: 0.01 mM)): 89%
Structure (SMILES): CSCC[C@H](NC(=O)c1ccc(CO[C@@H](CC2CCCCC2)C(=O)N2CCSCC2)cc1-c1ccccc1C)C(=O)O [Example 1054, N-[4-(3-cyclohexyl-N-thiomorpholin-4-ylpropion-2-yloxymethyl)-2-(2-methylphenyl)benzoyl]methionine, lithium salt]

More lines, now with the values behind:

Structure (SMILES): CCCCS(=O)(=O)N(Cc1ccc(C(=O)N[C@@H](CCSC)C(=O)O)c(-c2ccccc2C)c1)[C@H](CSCC)CC1CCCCC1 [Example 950]
% inhibition at 1 × 10^-7 M (Table 3, 1 × 10^-7 M): 71%

Structure (SMILES): CSCC[C@H](NC(=O)c1ccc(CNc2ccc(Oc3ccccc3)cc2)cc1-c1ccccc1)C(=O)O [Example 701]
% inhibition at 1 × 10^-5 M: 64%

Structure (SMILES): CSCC[C@H](NC(=O)c1ccc(/C=C/c2ccc3ccccc3c2)cc1-c1ccccc1C)C(=O)O [Example 465]
% inhibition at 1 × 10^-6 M (Table 2, 1 × 10^-6 M): 92%

Structure (SMILES): CCSC[C@H](CC1CCCCC1)N(Cc1ccc(C(=O)N[C@@H](CCSC)C(=O)O)c(-c2ccccc2C)c1)C(=O)OC(C)(C)C [Example 948]
% inhibition at 1 × 10^-7 M (Table 3, 1 × 10^-7 M): 75%

Structure (SMILES): CCn1cc(NCc2ccc(C(=O)N[C@@H](CCSC)C(=O)O)c(-c3ccccc3)c2)c(=O)n1CC [Example 364]
% inhibition at 1 × 10^-5 M: 69%

Structure (SMILES): CSCC[C@H](NC(=O)c1ccc(CSc2nc3cc(C)ccc3[nH]2)cc1-c1ccccc1C)C(=O)O [Example 733]
inhibition at 0.1 µM (read-out: % inhibition at 1 × 10^-7 M, Table 3, 1 × 10^-7 M): 60%

Structure (SMILES): CSCC[C@H](NC(=O)c1ccc(COCc2ccc(-c3ccccc3)o2)cc1-c1ccccc1C)C(=O)O [Example 327, [4-(5-phenylfur-2-ylmethyloxymethyl)-2-(2-methylphenyl)benzoyl]methionine lithium salt]
inhibition at 1 µM: 97%

Structure (SMILES): COc1ccccc1N(Cc1ccccc1)Cc1ccc(C(=O)N[C@@H](CCSC)C(=O)O)c(-c2ccccc2C)c1 [Example 839]
% inhibition at 1 × 10^-7 M (Table 3, 1 × 10^-7 M): 63%

Structure (SMILES): CSCC[C@H](NC(=O)c1ccc(CN[C@H](CSc2ccccc2C)CC2CCCCC2)cc1-c1ccccc1C)C(=O)O [Example 767]
% inhibition at 1 × 10^-8 M: 97%

Structure (SMILES): CCc1nnc(NCc2ccc(C(=O)N[C@@H](CCSC)C(=O)O)c(-c3ccccc3C)c2)s1 [Example 723]
% inhibition at 1 × 10^-6 M (Table 2, 1 × 10^-6 M): 87%

Structure (SMILES): CC[C@H](CC1CCCCC1)NCc1ccc(C(=O)N[C@@H](CCSC)C(=O)O)c(-c2ccccc2C)c1 [Example 614]
% inhibition at 1 × 10^-8 M: 92%
